The results in this text go back to publication PMC6566782, “Prodrugs for Skin Delivery of Menahydroquinone-4, an Active Form of Vitamin K2(20), Could Overcome the Photoinstability and Phototoxicity of Vitamin K2(20)” (International Journal of Molecular Sciences, 2019).

The structures appear in SMILES notation.

Data set [1] deals with HaCaT cells. Put plainly: Intracellular MKO and MK-4 levels after treatment with MK-4 and MKH derivatives (MKH delivery), LC-MS/MS. The following applies: 5 µM compound, intracellular MK-4, mean ± SD (n = 3). Type of data set: cell-based, Human. The protocol:
The potential of MKH derivatives and MK-4 as dermal delivery systems of MKH were assessed by measuring intracellular MKH levels. However, accurate measurement of MKH is difficult because MKH is readily oxidized to MK-4. […] Thus, MKO levels in HaCaT cells can reflect the amount of MKH delivered into the cell and subsequently converted in the carboxylation of VKDP. In addition, MK-4 level in cells after MKH prodrugs treatment indicates the oxidative product of MKH. In this study, the intracellular concentration of MKO and MK-4 in HaCaT cells over time after treatment with MK-4, MKH-DMG, or MKH-SUC (5 μM) was determined by LC-MS/MS (Figure 7). HaCaT cells were seeded at 5.0 × 10^4 cells/well in 24-well plates and allowed to attach for 48 h. Cells were cultured in medium containing 5 μM MK-4, MKH-DMG, or MKH-SUC, then medium was removed and cells were washed twice with PBS. Cells were collected in 500 μL of PBS and sonicated. Cell homogenates were combined with an equal volume of methanol and three times volume of n-hexane, vortexed for 2 min, and centrifuged at 1750× g for 10 min. […] The residue was reconstituted with 20 μL of methanol, and subjected to LC-MS/MS, as described below. The protein concentration of the cell homogenate was determined using a BCA protein assay kit (Thermo Fisher Scientific, Waltham, MA, USA). […]

The nature of data set [2]: Photostability in ethanol under artificial sunlight (12,000 lx), LC-MS/MS. In kind it is physicochemical. The following applies: 1 µM in ethanol. How it is done:
The relative irradiance of artificial sunlight at wavelengths of 300 to 800 nm is almost equal to that of natural sunlight, according to the manufacturer. […] MKH-SUC concentration decreased according to an apparent first order rate both with and without shading, although the rate of decrease was accelerated without shading. MKH-DMG and MKH-SUC were more photostable than MK-4 by ca. 50- and 3-fold, respectively.
(§1) Solutions of MK-4 and MKH derivatives in ethanol (1 µM) were irradiated with artificial sunlight (SOLAX 100 W XC-100 B, Seric Ltd., Tokyo, Japan) at 12,000 lx in quartz cells. Illuminance was measured using a digital luminometer (LX-1108, Mother Tool). Irradiation samples (1 µM in ethanol) were irradiated with artificial sunlight at 12,000 lx, and with monochromatic light (279, 341, 373, 404, and 435 nm) using a multi-wavelength irradiation spectrometer (MM 3, Bunkoukeiki Co., Ltd., Tokyo, Japan). Irradiation intensity was measured using an irradiation energy measurement power meter (MM 3, Bunkoukeiki Co., Ltd.).
(§2) LC-MS/MS was performed using an LCMS-8050 Liquid Chromatograph Mass Spectrometer (Shimadzu, Kyoto, Japan) and Shimadzu HPLC System (system controller (CBM-20A), pump (LD-20AD), degasser (DGU-20As), UV detector (SPD-20A), and auto injector (SIL-20AC HT)). Separations were performed on a CAPCELL PAK C18 UG120 (3 μm, 2.0 mm × 100 mm, Shiseido Co., Ltd., Tokyo, Japan) using a mobile phase of 10 mmol/L ammonium acetate and 0.1% acetic acid in methanol and water (97:3) at a flow rate of 0.4 mL/min. Column temperature was maintained at 40 °C. The mass spectrometer was equipped with an electrospray ionization and was run in positive ion mode. Identification and quantitation were based on MS/MS-multiple reaction monitoring mode using transition ions as follows: m/z 445 → 187 for the [M+H]^+ MK-4 adduct, m/z 445 → 187 for the [M + H]^+ chromenol adduct, 619 → 58 for the [M + H]^+ MKH-DMG adduct, m/z 532 → 58 for the [M + H]^+ MKH-mono-DMG adduct, m/z 664 → 187 for the [M + H]^+ MKH-SUC adduct, m/z 564 → 187 for the [M + H]^+ MKH-mono-SUC adduct, and m/z 461 → 81 for the [M + H]^+ MKO adduct.

A short description of data set [3]: Photostability in ethanol under monochromatic light of different wavelengths, LC-MS/MS. Type of data set: physicochemical. The following applies: 1 µM in ethanol, 25 °C. How it is done:
To evaluate the effect of irradiation wavelength on photostability of MK-4 and MKH-ester derivatives, 1 μM solutions of MK-4, MKH-DMG, and MKH-SUC in ethanol were irradiated with a xenon light source monochromatic light at 279, 341, 373, 404, or 435 nm, and the concentration of each compound was measured by LC-MS/MS. The log of concentration of each compound was plotted against irradiation energy (Figure 3), and the rates and half-life energies of degradation were obtained from slopes (Table 2). […] Hydrolytic degradations of MKH-DMG and MKH-SUC to their corresponding monoesters were accelerated only at the short wavelength of 279 nm (Figure 3B,C).
as §1, §2

Data set [4] concerns HaCaT cells. The data set can be described thus: Cell viability assay (CellTiter-Glo) 24 h after UVA irradiation. Type of data set: cell-based, Human. The following applies: 24 h after UVA irradiation 15 J/cm^2. The protocol: The in vitro phototoxicity of MK-4 and MKH derivatives were assessed by measuring the intracellular ROS generation and the viability of human epidermal keratinocyte cells (HaCaT) after UVA irradiation in the presence or absence of MK-4 and MKH derivatives. Intracellular ROS generation was determined using the cell permeable probe 2′,7′-dichlorofluorescein diacetate (DCFH-DA), which rapidly reacts with hydroxyl radicals. Cells without drug treatment or UVA irradiation were used as the control. ROS generation and cell viability are shown in Figure 5 and Figure 6, respectively.
HaCaT cells were seeded at 1.0 × 10^5 cells/well in 96-well plates and cultured overnight. Thereafter, cells were washed with PBS, and test compound solutions in PBS described above were added to each well and re-incubated for 1 h. After incubation, cells were irradiated with UVA at an irradiation intensity of 15 J/cm^2. After irradiation, cells were washed twice with PBS and replaced in culture medium. After 24 h incubation, cell viability was measured using a CellTiter-Glo® Luminescent Cell Viability Assay (Promega, Madison, WI, USA).

For the compound `CC(C)=CCC/C(C)=C/CC/C(C)=C/CC/C(C)=C/CC1=C(C)C(=O)c2ccccc2C1=O` [MK-4, menaquinone-4, reference compound], the “AUCMK-4 (0–72 h)” value in the data set on HaCaT cells [1] is recorded as 5.628 ± 0.698 nmol·h/mg of Protein. In data set [2] (artificial sunlight 12,000 lx, 25 °C), the “apparent first order rate constant (k) of degradation” value came out at 8.239 h⁻¹. Further, the “concentration change under shading” value in data set [2] (shading, 25 °C) is listed as “unchanged under shading”. Also, the main degradation product result in data set [2] (sunlight irradiation (MKH-SUC also under shading)) was “MK-4 chromenol”. For the same compound, the half-life at 1 µM in data set [2] (ethanol solution in quartz cells, artificial sunlight 12,000 lx, 25 °C, read-out: half-life (t1/2) of degradation (converted)) is 5.04 min. The “rate constant (k) of degradation” value was found to be 0.533 J^−1·cm^2 in data set [3] (monochromatic light 279 nm), 0.422 J^−1·cm^2 in data set [3] (monochromatic light 341 nm), 0.151 J^−1·cm^2 in data set [3] (monochromatic light 373 nm) and 0.035 J^−1·cm^2 in data set [3] (monochromatic light 435 nm). Further, the cell viability result in the data set on HaCaT cells [4] is recorded as “decreased dose-dependently”.
